Results published in PubChem BioAssay (NCI).
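Dose response: 5 concentrations. Exposure: 48 h. Format: 96-well plates. Endpoint: linear interpolation; highest concentration if not reached. Definition used: TGI = concentration required for complete inhibition of growth.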

Legend:
Assay in all cases: inhibition of tumour cell growth, NCI panel, 48 h
PC-3 prostate = tested on: PC-3 prostate
K-562 leukemia = tested on: K-562 leukemia
HOP-92 NSCLC = tested on: HOP-92 NSCLC
UO-31 renal = tested on: UO-31 renal
TK-10 renal = tested on: TK-10 renal
OVCAR-3 ovarian = tested on: OVCAR-3 ovarian
MOLT-4 leukemia = tested on: MOLT-4 leukemia
HOP-62 NSCLC = tested on: HOP-62 NSCLC
HCT-15 colon = tested on: HCT-15 colon
SW-620 colon = tested on: SW-620 colon
SN12C renal = tested on: SN12C renal
MDA-N = tested on: MDA-N
NCI-H460 lung = tested on: NCI-H460 lung
UACC-257 melanoma = tested on: UACC-257 melanoma
U251 CNS = tested on: U251 CNS
M14 melanoma = tested on: M14 melanoma
HS 578T breast = tested on: HS 578T breast
RPMI-8226 leukemia = tested on: RPMI-8226 leukemia
CAKI-1 renal = tested on: CAKI-1 renal
SR leukemia = tested on: SR leukemia
SF-295 CNS = tested on: SF-295 CNS
KM12 colon = tested on: KM12 colon
MDA-MB-435 = tested on: MDA-MB-435
MALME-3M melanoma = tested on: MALME-3M melanoma
786-0 renal = tested on: 786-0 renal
SK-MEL-5 melanoma = tested on: SK-MEL-5 melanoma
SNB-19 CNS = tested on: SNB-19 CNS
COLO 205 colon = tested on: COLO 205 colon
SK-OV-3 ovarian = tested on: SK-OV-3 ovarian
OVCAR-4 ovarian = tested on: OVCAR-4 ovarian
OVCAR-8 ovarian = tested on: OVCAR-8 ovarian
RXF 393 renal = tested on: RXF 393 renal
IGROV1 ovarian = tested on: IGROV1 ovarian
OVCAR-5 ovarian = tested on: OVCAR-5 ovarian
A549 NSCLC = tested on: A549 NSCLC
ACHN renal = tested on: ACHN renal
LOX IMVI melanoma = tested on: LOX IMVI melanoma
SF-539 CNS = tested on: SF-539 CNS
NCI/ADR-RES ovarian = tested on: NCI/ADR-RES ovarian
DU-145 prostate = tested on: DU-145 prostate
NCI-H226 lung = tested on: NCI-H226 lung
NCI-H23 lung = tested on: NCI-H23 lung
CCRF-CEM leukemia = tested on: CCRF-CEM leukemia
HCC-2998 colon = tested on: HCC-2998 colon
BT-549 breast = tested on: BT-549 breast
UACC-62 melanoma = tested on: UACC-62 melanoma
EKVX NSCLC = tested on: EKVX NSCLC
HL-60(TB) leukemia = tested on: HL-60(TB) leukemia
SF-268 CNS = tested on: SF-268 CNS
MDA-MB-231 breast = tested on: MDA-MB-231 breast
MCF7 breast = tested on: MCF7 breast
NCI-H522 lung = tested on: NCI-H522 lung
T-47D breast = tested on: T-47D breast
HCT-116 colon = tested on: HCT-116 colon
HT29 colon = tested on: HT29 colon

`O=c1[nH]nc(-c2ccccc2)c2[nH]c3c(c12)CCCc1ccccc1-3` gave a TGI (PC-3 prostate) of 58.5 µM, a TGI (K-562 leukemia) of 94.8 µM and a TGI (HOP-92 NSCLC) of 54.8 µM. For the same compound, the TGI (UO-31 renal) was 34.7 µM, the TGI (TK-10 renal) was 86.4 µM and the TGI (OVCAR-3 ovarian) was 66.3 µM. It also gave a TGI (MOLT-4 leukemia) of 33.8 µM, a TGI (HOP-62 NSCLC) of 46.4 µM and a TGI (HCT-15 colon) of 10.4 µM. It also gave a TGI (SW-620 colon) of 50.8 µM, a TGI (SN12C renal) of 35.8 µM and a TGI (MDA-N) of 29.4 µM. It also gave a TGI (NCI-H460 lung) of 60 µM, a TGI (UACC-257 melanoma) of 44.5 µM and a TGI (U251 CNS) of 28 µM. For the same compound, the TGI (M14 melanoma) was 36.9 µM, the TGI (HS 578T breast) was 38.7 µM and the TGI (RPMI-8226 leukemia) was 31.2 µM. For the same compound, the TGI (CAKI-1 renal) was > 100 µM, the TGI (SR leukemia) was 69.9 µM and the TGI (SF-295 CNS) was 57.5 µM. It also gave a TGI (KM12 colon) of 23.5 µM, a TGI (MDA-MB-435) of 29.6 µM and a TGI (MALME-3M melanoma) of 30.9 µM. It also gave a TGI (786-0 renal) of 28 µM, a TGI (SK-MEL-5 melanoma) of 26.5 µM and a TGI (SNB-19 CNS) of 26.8 µM. The TGI (COLO 205 colon) was 22.2 µM, the TGI (SK-OV-3 ovarian) was > 100 µM and the TGI (OVCAR-4 ovarian) was 33.6 µM. The TGI (OVCAR-8 ovarian) was 50.7 µM, the TGI (RXF 393 renal) was 36 µM and the TGI (IGROV1 ovarian) was 25 µM. It also gave a TGI (OVCAR-5 ovarian) of 34.8 µM, a TGI (A549 NSCLC) of 25.6 µM and a TGI (ACHN renal) of 38.9 µM. The TGI (LOX IMVI melanoma) was 33.7 µM, the TGI (SF-539 CNS) was 36.1 µM and the TGI (NCI/ADR-RES ovarian) was 32.5 µM. For the same compound, the TGI (DU-145 prostate) was 57.8 µM, the TGI (NCI-H226 lung) was 37.5 µM and the TGI (NCI-H23 lung) was > 100 µM. For the same compound, the TGI (CCRF-CEM leukemia) was 47.2 µM, the TGI (HCC-2998 colon) was 28 µM and the TGI (BT-549 breast) was 47.4 µM. For the same compound, the TGI (UACC-62 melanoma) was 25.1 µM, the TGI (EKVX NSCLC) was > 100 µM and the TGI (HL-60(TB) leukemia) was 46.2 µM. The TGI (SF-268 CNS) was > 100 µM, the TGI (MDA-MB-231 breast) was 52.4 µM and the TGI (MCF7 breast) was 50.9 µM. It also gave a TGI (NCI-H522 lung) of 27.1 µM, a TGI (T-47D breast) of 57.5 µM and a TGI (HCT-116 colon) of 28.5 µM. For the same compound, the TGI (HT29 colon) was 24.3 µM.
